# Measurements taken from ChEMBL document CHEMBL3352739, “Comparative in vivo evaluation of polyalkoxy substituted 4H-chromenes and oxa-podophyllotoxins as microtubule destabilizing agents in the phenotypic sea urchin embryo assay” (2014).
# How the values were obtained:
# [1] = tested on: Paracentrotus lividus; assay: Antimitotic microtubule destabilizing activity in Paracentrotus lividus L embryos assessed as induction of cleavage alteration
# [2] = tested on: Paracentrotus lividus; assay: Antimitotic microtubule destabilizing activity in Paracentrotus lividus L embryos assessed as induction of cleavage arrest
# [3] = Cytotoxicity against human NCI60 cells assessed as mean cell growth at 10 uM; type: functional
# [4] = tested on: Paracentrotus lividus; assay: Antimitotic microtubule destabilizing activity in Paracentrotus lividus L embryos assessed as induction of embryo spinning
# [5] = Cytotoxicity against human NCI60 cells; type: functional
SMILES,EC [1],EC [2],Activity [3],EC [4],GI50 [5]
COc1ccc(OC)c(C2C(C#N)=C(N)Oc3cc(O)ccc32)c1 (stereo unspecified),1 µM,> 4 µM,94.5%,> 4 µM,–
COc1ccc(C2C(C#N)=C(N)Oc3cc(O)ccc32)cc1OC (stereo unspecified),> 4 µM,> 4 µM,99.4%,> 4 µM,–
COc1cc([C@@H]2c3cc4c(cc3[C@H](O)[C@H]3COC(=O)[C@H]23)OCO4)cc(OC)c1OC [PODOFILOX],0.02 µM,0.05 µM,–,0.5 µM,21 nM
COc1ccc(C2C(C#N)=C(N)Oc3cc(O)ccc32)cc1 (stereo unspecified),> 4 µM,> 4 µM,96%,> 4 µM,–
